US11267797B2, “Anticancer agent” (Kyoto Pharmaceutical Industries, Ltd., priority 2014, dated 2022)
Counter-ions that a name gives are not always drawn.

Assay: Blood concentration after oral administration to rat or dog
Type: in vivo
Conditions: gavage to male SD rat or male beagle, suspended in 0.5% methylcellulose, 30 mg/kg or 100 mg/kg, respectively, HPLC or LC-MS/MS; for blood concentration of compound (A) after administration of the Example compound: 0.25-24 hr
Protocol: Experimental Example 2: Blood Concentration after Oral Administration to Rat or Dog
Compound (A) or Example compound suspended in 0.5% methylcellulose solution was administered by gavage to male SD rat or male beagle at a dose of 30 mg/kg or 100 mg/kg, respectively. At 0.25, 0.5, 1, 2, 4, 6 and 24 hr after administration, blood samples were collected from the cervical vein with a 1 mL syringe and was added in a 2.0 mL tube to which heparin was added. The blood was treated with acetonitrile, and the blood concentration of compound (A) was determined by using HPLC or LC-MS/MS.

SMILES	blood concentration of compound (A) after administration of the Example compound	maximum blood concentration of compound (A), compared with administration of compound (A) itself
O=C(/C=C(\O)c1cc2c(o1)C(=O)c1ccccc1C2=O)OCCO [Example 13, 2-Hydroxyethyl 3-(4,9-dioxo-4,9-dihydro-naphtho[2,3-b]furan-2-yl)-3-hydroxy-acrylate Ethanolamine Salt]	emerged in the blood over time	higher
CC(OC(=O)CC(=O)c1cc2c(o1)C(=O)c1ccccc1C2=O)OC(=O)OC[C@@H](O)CO (stereo partly drawn) [Example 65]	emerged in the blood over time	higher
CC(OC(=O)CC(=O)c1cc2c(o1)C(=O)c1ccccc1C2=O)OC(=O)OCC1COC(C)(C)O1 (stereo not drawn) [Example 66]	emerged in the blood over time	higher
N[C@@H](CO)C(=O)OCCOC(=O)CC(=O)c1cc2c(o1)C(=O)c1ccccc1C2=O [Example 75]	emerged in the blood over time	higher
O=C(/C=C(\[O-])c1cc2c(o1)C(=O)c1ccccc1C2=O)OCC(O)CO.[Na+] (stereo not drawn) [Example 88]	emerged in the blood over time	higher
CCN(CC)CC#CCOC(=O)CC(=O)c1cc2c(o1)C(=O)c1ccccc1C2=O.Cl [Example 93]	emerged in the blood over time	higher
O=C(/C=C(\O)c1cc2c(o1)C(=O)c1ccccc1C2=O)OCC(O)CO (stereo not drawn) [Example 95]	emerged in the blood over time	higher
O=C(/C=C(\O)c1cc2c(o1)C(=O)c1ccccc1C2=O)OCCOCCO [Example 125]	emerged in the blood over time	higher
O=C(/C=C(\O)c1cc2c(o1)C(=O)c1ccccc1C2=O)OCC(CO)CO [Example 126]	emerged in the blood over time	higher
O=C(/C=C(\O)c1cc2c(o1)C(=O)c1ccccc1C2=O)OCCOCC(O)CO (stereo not drawn) [Example 129]	emerged in the blood over time	higher
O=C(/C=C(\O)c1cc2c(o1)C(=O)c1ccccc1C2=O)OCCCO [Example 133]	emerged in the blood over time	higher

Now from value to molecule:

blood concentration of compound (A) after administration of the Example compound	maximum blood concentration of compound (A), compared with administration of compound (A) itself	SMILES
emerged in the blood over time	higher	COCC(C)(C)C(=O)OC(C)OC(=O)CC(=O)c1cc2c(o1)C(=O)c1ccccc1C2=O (stereo not drawn) [Example 54]
emerged in the blood over time	higher	O=C(CC(=O)c1cc2c(o1)C(=O)c1ccccc1C2=O)OCOC(=O)C(O)CO (stereo not drawn) [Example 60]
emerged in the blood over time	higher	C[C@H](N)C(=O)OCCOC(=O)CC(=O)c1cc2c(o1)C(=O)c1ccccc1C2=O.Cl [Example 74]
emerged in the blood over time	higher	COCCOC(=O)CC(=O)c1cc2c(o1)C(=O)c1ccccc1C2=O [Example 79]
emerged in the blood over time	higher	CC(C)N1CC(OC(=O)CC(=O)c2cc3c(o2)C(=O)c2ccccc2C3=O)C1.Cl [Example 114]
emerged in the blood over time	higher	Cl.O=C(CC(=O)c1cc2c(o1)C(=O)c1ccccc1C2=O)OCC#CCN1CCCC1 [Example 116]
emerged in the blood over time	higher	CC(C)[C@H](N)C(=O)OCCCOC(=O)CC(=O)c1cc2c(o1)C(=O)c1ccccc1C2=O.Cl [Example 120]
